In patent US20070204353A1, “Transgenic animals and methods of monitoring hedgehog responding cells” (priority 2005, published 2007):

Tested on: fast-dividing cells in the SVZ and SGZ
Test: AraC infusion (mini-osmotic pump, one week) into brain of tamoxifen-marked Gli1-CreERT2;R26R mice; marker analysis of fate-mapped lacZ+ cells
Details: for lacZ+;GFAP+/total lacZ+ ± SD (%): end of one-week 2% AraC infusion (0 day); for lacZ+;PSA-NCAM+/total lacZ+ ± SD (%): AraC 0 day; for Dlx2 expression: after AraC treatment
Excerpt: For AraC treatment, two days after TM treatment, a mini-osmotic pump (model 1007D, Duret) was implanted to infuse either saline or 2% AraC (Sigma) for one week as described (Doetsch, F. et al. (1999), Proc Natl Acad Sci USA 96: 11619-11624). Brains of mice that were sacrificed at the end of AraC or control treatment were designated as day 0 samples. For long-term survival experiments, the pump was removed one week after implantation and mice were later sacrificed at the indicated survival time. The second application of AraC was done as the first AraC treatment.
Mice were perfused (4% paraformaldehyde (PFA)), processed for frozen sections, and stained with X-gal as described in the Joyner lab website (http://saturn.med.nyu.edu/research/dg/joynerlab). For immunofluorescent staining, dissected brains were fixed in 4% PFA overnight at 4° C. and 50 μm vibratome (Leica) sections were obtained. Free-floating sections were stained overnight at 4° C. with goat anti-galactosidase (1:500; Biogenesis) and one of the following antibodies: mouse anti-GFAP (1:500), anti-PSA-NCAM (1:300), anti-NeuN (1:200; Chemicon), anti-CCI (1:20, Calbiochem), anti-CNPase (1:150), anti-MBP (1:200, SMI), guinea pig anti-Olig2 (1:20,000; from B. Novitch), rat anti-NG2/AN2 (1:10; from C. Klein), and rabbit anti-GABA (1:500, Sigma). Secondary antibodies for double labeling were donkey anti-species conjugated with Alexa 488, Alexa 555 (1:500; Molecular Probes), or FITC (1:200; Jackson ImmunoResearch). Fluorescent images were captured in 1.5-μm optical sections using a confocal laser-scanning microscope (LSM 510, Zeiss) and processed with Adobe Photoshop. Orthogonal analysis was performed to confirm co-expression of two markers. Cells co-expressing lacZ and one of the various markers were counted and divided by total number of lacZ expressing cells in the indicated region. At least three sections through the SVZ and DG were analyzed from one mouse. Data from at least three mice were pooled together to determine the average and standard deviation (SD). T-test was performed to calculate the p-value and determine whether the results between two time points were different with statistical significance.
Two days after TM treatment, AraC was infused for one week into the brain of Gli1-CreER^T2; R26R mice using a mini-osmotic pump.

## Nc1ccn([C@@H]2O[C@H](CO)[C@@H](O)[C@@H]2O)c(=O)n1 [AraC, cytosine arabinoside]
DG (SGZ)
  lacZ+;GFAP+/total lacZ+ ± SD (%): 93.7±4.7%
DG
  lacZ+;PSA-NCAM+/total lacZ+ ± SD (%): 2.1 ± 3.6%
RMS
  Dlx2 expression: greatly diminished
SVZ
  Dlx2 expression: abolished
End of AraC treatment (day 0), n=3
  neuroblasts (PSA-NCAM immunoreactivity) in whole mounts of the lateral wall of the lateral ventricles: almost completely depleted
Ventral SVZ
  lacZ+;PSA-NCAM+/total lacZ+ ± SD (%): 1.6 ± 2.9%
  lacZ+;GFAP+/total lacZ+ ± SD (%): 92.2±1.0%
Within one week after AraC removal, n=5 vs control n=4
  labeled cells in the SVZ and DG versus control mice: expanded more than control mice
